# Test results taken from US9249125B2, “Pyrazole derivatives as p38 MAP inhibitors” (RESPIVERT LIMITED, priority 2012, dated 2016).
# Key:
# [1] = molecular target: Syk (Homo sapiens (Human), UniProt P43405); assay: Syk enzyme inhibition (FRET, Z-LYTE); type: biochemical
# Outline: (§1)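 Z-LYTE FRET kinase assay: enzyme (3000 or 2000 ng/mL stock, respectively) preincubated 2 h at RT with compound (4–0.004 μg/mL stocks), then FRET peptide plus ATP (800 μM stock for c-Src, 60 μM for Syk) added for 1 h. Protease development 1 h; phosphorylation from coumarin/fluorescein emission ratio.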
# [2] = test system: LPS-induced IL-8 release in d-U937 cells; assay: LPS-induced IL-8 release in d-U937 cells; type: cell-based; details: Homo sapiens, dU937, read-out: LPS Induced Release of Cytokine in d-937 Cells IL-8 IC50
# Outline: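 PMA (100 ng/mL, 48–72 hr)-differentiated U937; cpd 2 hr pre-inc; LPS 0.1 μg/mL (E. coli O111:B4) 4 hr. Supernatant TNFα/IL-8 by sandwich ELISA. IL-8 inhibition per concentration vs vehicle; REC50 from curve fit.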
# [3] = molecular target: cSrc (Homo sapiens (Human), UniProt P12931); assay: c-Src enzyme inhibition (FRET, Z-LYTE); type: biochemical
# Outline: as §1
# [4] = test system: LPS-induced TNFα release in d-U937 cells; assay: LPS-induced TNFα release in d-U937 cells; type: cell-based; details: Homo sapiens, dU937, relative to 10 μg/mL BIRB796, read-out: LPS Induced Release of Cytokine in d-937 Cells TNFα REC50
# Outline: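 PMA-differentiated (100 ng/mL, 48–72 hr) U937 cells pre-incubated with compound 2 hr, then stimulated with LPS (0.1 μg/mL, E. coli O111:B4) for 4 hr. Supernatant TNFα and IL-8 measured by sandwich ELISA; inhibition versus vehicle control, REC50 from concentration-response curve.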
# [5] = molecular target: GSK3α (Homo sapiens (Human), UniProt P49840); assay: GSK 3α enzyme inhibition (FRET, Z-LYTE); type: biochemical
# Outline: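 GSK3α (500 ng/mL stock) was preincubated 2 hr at RT with compound (4 to 0.004 μg/mL stocks), then FRET peptide (8 μM stock) and ATP (40 μM stock) added for 1 hr. Protease development for 1 hr cleaved unphosphorylated peptide; coumarin/fluorescein emission ratio reported phosphorylation.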
# [6] = test system: d-U937 cells; assay: Cell viability: MTT assay; type: cell-based, human; details: 1 μg/mL
# Outline: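 Differentiated U937 cells were exposed to compound at 1 or 10 μg/mL either 4 h in 5% FCS RPMI1640 or 24 h in 10% FCS RPMI1640, then given MTT for 1 h, DMSO-solubilised and read at 550 nm. Percent viability loss versus 0.5% DMSO vehicle; apparent gains appear negative.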
# [7] = test system: Poly I:C-induced ICAM-1 expression in BEAS2B cells; assay: Poly I:C-induced ICAM-1 expression in BEAS2B cells; type: cell-based; details: Homo sapiens, BEAS-2B, read-out: Poly IC induced ICAM1 in BEAS2B IC50
# Outline: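 BEAS2B human bronchial epithelial cells pre-incubated with compound for 2 hr, then transfected with 1 μg/mL poly I:C plus Oligofectamine. At 18 hr, surface ICAM-1 measured by cell-based ELISA (HRP, OD450–655). Signal corrected for cell number by crystal violet OD595.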
# [8] = molecular target: p38 MAPKα (Homo sapiens (Human), UniProt Q16539); assay: p38 MAPKα enzyme inhibition (FRET, Z-LYTE); type: biochemical
# Chain of p38 MAPKα (Q16539 whole entry): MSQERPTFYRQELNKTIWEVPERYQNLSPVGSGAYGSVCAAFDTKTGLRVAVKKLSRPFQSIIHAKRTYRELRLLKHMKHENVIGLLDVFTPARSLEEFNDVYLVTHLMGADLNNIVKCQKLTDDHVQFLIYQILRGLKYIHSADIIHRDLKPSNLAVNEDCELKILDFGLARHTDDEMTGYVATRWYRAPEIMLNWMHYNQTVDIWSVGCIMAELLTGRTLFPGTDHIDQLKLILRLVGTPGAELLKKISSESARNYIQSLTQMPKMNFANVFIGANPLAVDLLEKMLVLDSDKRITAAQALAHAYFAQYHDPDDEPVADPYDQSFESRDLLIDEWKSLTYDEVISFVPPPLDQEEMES
# Chain of cSrc (P12931 whole entry, looked up): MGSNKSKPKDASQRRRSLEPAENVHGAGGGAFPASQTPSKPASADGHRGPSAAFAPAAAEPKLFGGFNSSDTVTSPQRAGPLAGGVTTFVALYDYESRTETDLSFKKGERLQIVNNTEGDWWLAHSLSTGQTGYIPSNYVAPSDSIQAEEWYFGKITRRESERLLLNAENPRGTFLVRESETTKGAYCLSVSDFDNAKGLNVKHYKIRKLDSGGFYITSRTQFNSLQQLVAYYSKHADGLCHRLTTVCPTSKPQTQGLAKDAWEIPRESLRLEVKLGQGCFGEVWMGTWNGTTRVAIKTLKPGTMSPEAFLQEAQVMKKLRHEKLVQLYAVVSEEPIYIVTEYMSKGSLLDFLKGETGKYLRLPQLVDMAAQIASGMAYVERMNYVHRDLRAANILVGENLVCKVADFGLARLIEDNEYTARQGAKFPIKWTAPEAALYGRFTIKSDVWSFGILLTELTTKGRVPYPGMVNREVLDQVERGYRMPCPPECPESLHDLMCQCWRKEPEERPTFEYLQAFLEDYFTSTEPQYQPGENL
# Chain of GSK3α (P49840 whole entry): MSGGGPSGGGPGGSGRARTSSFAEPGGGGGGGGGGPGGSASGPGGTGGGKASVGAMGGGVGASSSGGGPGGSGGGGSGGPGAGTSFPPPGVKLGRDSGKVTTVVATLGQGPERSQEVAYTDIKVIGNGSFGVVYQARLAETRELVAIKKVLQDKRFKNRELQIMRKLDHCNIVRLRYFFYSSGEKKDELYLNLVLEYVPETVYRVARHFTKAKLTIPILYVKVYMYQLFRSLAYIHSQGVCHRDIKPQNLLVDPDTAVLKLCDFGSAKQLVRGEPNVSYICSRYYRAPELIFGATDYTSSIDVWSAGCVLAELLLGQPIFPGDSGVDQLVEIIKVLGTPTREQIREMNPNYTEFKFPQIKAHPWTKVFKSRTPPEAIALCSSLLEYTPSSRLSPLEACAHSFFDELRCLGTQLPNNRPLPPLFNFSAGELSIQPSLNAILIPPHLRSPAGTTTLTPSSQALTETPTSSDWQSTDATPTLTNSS
Compound,IC50 [1],IC50 [2],IC50 [3],EC50 [4],IC50 [5],IC50 [8],MTT Assay Cell viability at time point in d-U937 cells 4 h [6],MTT Assay Cell viability at time point in d-U937 cells 24 h [6],IC50 [7]
"CC(C)c1cc(NC(=O)Nc2ccc(Oc3cc(Nc4ccc5[nH]ncc5c4)ncn3)c3ccccc23)n(-c2ccc(=O)n(CCO)c2)n1 [Example 84, 1-(4-((6-((1H-indazol-5-yl)amino)pyrimidin-4-yl)oxy)naphthalen-1-yl)-3-(1-(1-(2-hydroxyethyl)-6-oxo-1,6-dihydropyridin-3-yl)-3-isopropyl-1H-pyrazol-5-yl)urea]",12 nM,217 nM,3 nM,147 nM,278 nM,< 1.5 nM,"−ve (−ve and +ve indicate that the value is below and above respectively, the no significant effect threshold, defined as 30% inhibition at 1 μg/mL at the time point indicated.)","−ve (−ve and +ve indicate that the value is below and above respectively, the no significant effect threshold, defined as 30% inhibition at 1 μg/mL at the time point indicated.)",> 152 nM
"CC(C)(C)c1cc(NC(=O)Nc2ccc(Oc3ccnc(Nc4ccc5c(c4)CCC5)n3)c3ccccc23)n(-c2ccc(OCCN3CCOCC3)cc2)n1 [Example 59, 1-(3-(tert-butyl)-1-(4-(2-morpholinoethoxy)phenyl)-1H-pyrazol-5-yl)-3-(4-((2-((2,3-dihydro-1H-inden-5-yl)amino)pyrimidin-4-yl)oxy)naphthalen-1-yl)urea]",28 nM,16.8 nM,23 nM,12.6 nM,> 9230 nM,98 nM,"−ve (−ve and +ve indicate that the value is below and above respectively, the no significant effect threshold, defined as 30% inhibition at 1 μg/mL at the time point indicated.)","−ve (−ve and +ve indicate that the value is below and above respectively, the no significant effect threshold, defined as 30% inhibition at 1 μg/mL at the time point indicated.)",0.1 nM
"CC(C)(C)c1cc(NC(=O)Nc2ccc(Oc3ccnc(Nc4ccc5c(c4)OCCO5)n3)c3ccccc23)n(-c2ccc(OCCN3CCOCC3)cc2)n1 [Example 11, 1-(3-(tert-Butyl)-1-(4-(2-morpholinoethoxy)phenyl)-1H-pyrazol-5-yl)-3-(4-((2-((2,3-dihydrobenzo[b][1,4]dioxin-6-yl)amino)pyrimidin-4-yl)oxy)naphthalen-1-yl)urea]",15 nM,25.2 nM,6 nM,8.5 nM,848 nM,39 nM,"−ve (−ve and +ve indicate that the value is below and above respectively, the no significant effect threshold, defined as 30% inhibition at 1 μg/mL at the time point indicated.)","−ve (−ve and +ve indicate that the value is below and above respectively, the no significant effect threshold, defined as 30% inhibition at 1 μg/mL at the time point indicated.)",7.9 nM
"CC(C)(C)c1cc(NC(=O)Nc2ccc(Oc3ccnc(Nc4ccc5c(cnn5CCN5CCOCC5)c4)n3)c3ccccc23)n(-c2ccc(OCCN3CCOCC3)nc2)n1 [Example 92, 1-(3-(tert-butyl)-1-(6-(2-morpholinoethoxy)pyridin-3-yl)-1H-pyrazol-5-yl)-3-(4-((2-((1-(2-morpholinoethyl)-1H-indazol-5-yl)amino)pyrimidin-4-yl)oxy)naphthalen-1-yl)urea]",< 1 nM,11.5 nM,< 1 nM,1.5 nM,569 nM,5 nM,"−ve (−ve and +ve indicate that the value is below and above respectively, the no significant effect threshold, defined as 30% inhibition at 1 μg/mL at the time point indicated.)","−ve (−ve and +ve indicate that the value is below and above respectively, the no significant effect threshold, defined as 30% inhibition at 1 μg/mL at the time point indicated.)",5.3 nM

# Now from value to compound, other results behind:
IC50 [1],IC50 [2],IC50 [3],EC50 [4],IC50 [5],IC50 [8],Compound,MTT Assay Cell viability at time point in d-U937 cells 4 h [6],MTT Assay Cell viability at time point in d-U937 cells 24 h [6],IC50 [7]
9 nM,> 1330 nM,12 nM,11.1 nM,3440 nM,269 nM,"Cc1n[nH]c2cc(Nc3nccc(Oc4ccc(NC(=O)Nc5cc(C(C)(C)C)nn5-c5ccc(OCCN6CCOCC6)cc5)c5ccccc45)n3)ccc12 [Example 71, 1-(3-(tert-butyl)-1-(4-(2-morpholinoethoxy)phenyl)-1H-pyrazol-5-yl)-3-(4-((2-((3-methyl-1H-indazol-6-yl)amino)pyrimidin-4-yl)oxy)naphthalen-1-yl)urea]","−ve (−ve and +ve indicate that the value is below and above respectively, the no significant effect threshold, defined as 30% inhibition at 1 μg/mL at the time point indicated.)","−ve (−ve and +ve indicate that the value is below and above respectively, the no significant effect threshold, defined as 30% inhibition at 1 μg/mL at the time point indicated.)",2.2 nM
26 nM,1.1 nM,10 nM,1.8 nM,> 1560 nM,184 nM,"COc1ccc(-n2nc(C(C)(C)C)cc2NC(=O)Nc2ccc(Oc3ccnc(Nc4ccc5[nH]ccc5c4)n3)c3ccccc23)cc1 [Example 38, 1-(4-((2-((1H-indol-5-yl)amino)pyrimidin-4-yl)oxy)naphthalen-1-yl)-3-(3-(tert-butyl)-1-(4-methoxyphenyl)-1H-pyrazol-5-yl)urea]","−ve (−ve and +ve indicate that the value is below and above respectively, the no significant effect threshold, defined as 30% inhibition at 1 μg/mL at the time point indicated.)","−ve (−ve and +ve indicate that the value is below and above respectively, the no significant effect threshold, defined as 30% inhibition at 1 μg/mL at the time point indicated.)",2.5 nM
93 nM,3.1 nM,27 nM,3.5 nM,2290 nM,417 nM,"CC(C)(C)c1cc(NC(=O)Nc2ccc(Oc3ccnc(Nc4ccc5[nH]c(=O)oc5c4)n3)c3ccccc23)n(-c2ccc(OCCN3CCOCC3)cc2)n1 [Example 77, 1-(3-(tert-butyl)-1-(4-(2-morpholinoethoxy)phenyl)-1H-pyrazol-5-yl)-3-(4-((2-((2-oxo-2,3-dihydrobenzo[d]oxazol-6-yl)amino)pyrimidin-4-yl)oxy)naphthalen-1-yl)urea]","−ve (−ve and +ve indicate that the value is below and above respectively, the no significant effect threshold, defined as 30% inhibition at 1 μg/mL at the time point indicated.)","−ve (−ve and +ve indicate that the value is below and above respectively, the no significant effect threshold, defined as 30% inhibition at 1 μg/mL at the time point indicated.)",8.6 nM
